Assay [1] deals with NCI-H358 cells. The experiment in a line: Growth inhibition activity on KRAS-G12C mutant cell line (NCI-H358) (in vitro, CellTiter-Glo2.0). Particulars: Homo sapiens, NCI-H358, 72 h, 3-day culture in the presence of the compound. In kind it is cell-based. The procedure:
NCI-H358 cells (ATCC, Cat #: CRL-5807), which are a KRAS-G12C mutant human lung cancer cell line, were suspended in a 10% fetal bovine serum-containing RPMI1640 medium (manufactured by Fujifilm Wako Pure Chemical Corporation.). The cell suspension was seeded into each well of a 384-well flat-bottom microplate and cultured in an incubator containing 5% CO2 gas at 37° C. for 1 day. The test compound was dissolved in DMSO, and diluted with DMSO to give a concentration 500 times the final concentration. The solution of the test compound in DMSO was diluted with the medium used for suspending cells and added to each well of the cell-culture plate to give a DMSO final concentration of 0.2%, followed by culture in an incubator containing 5% CO2 gas at 37° C. for another 3 days. The cell count after 3-day culture in the presence of the compound was measured using CellTiter-Glo2.0 (manufactured by Promega Corporation) in accordance with the protocol recommended by Promega Corporation. The growth inhibition rate was calculated from the following equation, and the concentration of the test compound at which 50% inhibition was achieved (IC50 (nM)) was determined. […] Growth Inhibition Rate (%)=(C−T)/(C)×100 • T: the emission intensity in a well into which a test compound was added. • C: the emission intensity in a well into which a test compound was not added.

Assay [2] deals with KRAS G12C (Homo sapiens (Human), UniProt P01116, G12C). The experiment in a line: Inhibitory activity on KRAS G12C nucleotide (GDP-GTP) exchange reaction (Bodipy FL GDP, SOS1, GppNHp). In kind it is biochemical. Particulars: preincubation at 25° C. for 4 hours; SOS1 100 nM, GppNHp 1 μM, reaction 30 minutes. As for the experimental part:
The inhibitory activity of compounds on exchange reaction of GDP into GppNHp in Bodipy (trademark) FL-bound KRAS G12C was examined by fluorescence measurement using human recombinant KRAS G12C and SOS1 proteins.
For the preparation of KRAS G12C to which Bodipy FL GDP was bound, first, 50 μM^y KRAS G12C (amino acid region: 1-169) and 1 mM Bodipy FL GDP (Invitrogen, G22360) were incubated for 1 hour in a buffer (20 mM Tris-HCl (pH 7.5), 50 mM NaCl, 1 mM DTT) in ice in the presence of 2.5 mM EDTA. Thereafter, MgCl2 with a final concentration of 10 mM was added, and the mixture was incubated at room temperature for 30 minutes. The protein was allowed to pass through a NAP-5 column to remove free nucleotides and was used for compound evaluation.
For the measurement of the inhibitory activity of compounds on nucleotide exchange reaction, first, the compound of the present invention was diluted stepwise with dimethyl sulfoxide (DMSO). […] The change in fluorescence intensity of Bodipy FL (excitation wavelength: 485 nm, fluorescence wavelength: 520 nm) immediately after the start of reaction and after 30 minutes from the start of reaction was standardized. […]

Assay [3] concerns the target G12C K-Ras4B (1-169) (Homo sapiens (Human), UniProt P01116, G12C). Kind of assay: Test of compounds on whether to bind to KRASG12C (LC-MS compound binding rate). Particulars: final compound concentration of 2 μM, 1 μM protein, 25° C. for 2 hours. A digest of the protocol: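 K-Ras4B (1-169) WT and G12C (1 μM each, mixed) in 1×TBS, 0.1 mM TCEP incubated with compound (final 2 μM) 2 h at 25° C; quenched with 0.2% formic acid. Intact-protein LC-MS (ESI+, deconvoluted); binding rate = adduct signal/(adduct + unbound signal), giving selectivity over WT.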

Structures are written as SMILES.

For orientation: IC50 means the concentration that inhibits the measured activity by half.

For the molecule `C=CC(=O)N1CC(NC(=O)c2c(Cl)nc(CNc3n[nH]c4cc(Cl)c(C(C)(C)C)cc34)n2[C@H]2CC[C@@H](OC)CC2)C1` [Example 112, N-(1-acryloylazetidin-3-yl)-2-(((5-(tert-butyl)-6-chloro-1H-indazol-3-yl)amino)methyl)-4-chloro-1-(4-methoxycyclohexyl)-1H-imidazole-5-carboxamide], the results for the IC50 in assay [1] and in assay [2] were 52 nM and 5 nM, respectively. For the same molecule, the “binding rate for G12C K-Ras4B (1-169)” value in assay [3] is listed as “A (a binding rate of 80% or more is rated “A,”)”.

For the origin of these results see patent publication US12065430B2, “Indazole compound or salt thereof” (TAIHO PHARMACEUTICAL CO., LTD., priority 2018, dated 2024).
